According to US11970498B2, “CDK2 inhibitors” (BLUEPRINT MEDICINES CORPORATION, priority 2021, dated 2024):

Key:
[1] = target: T1, CDK1/Cyclin B1, GST-tag (Homo sapiens, UniProt P06493); test: CDK1/Cyclin B1 biochemical phosphorylation assay (Caliper mobility shift); settings: apparent IC50; 1.0 mM ATP or ATP Km; 1.5 nM enzyme; 25° C.
T1 construct: GST
How it was run: (§1)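 7.5 µM 5-FAM-QSPKKG-CONH2 peptide phosphorylated by CDK2/Cyclin E (1.25 nM) or GST-CDK1/Cyclin B1 (1.5 nM) at 1.0 mM ATP or ATP Km, in HEPES pH 7.5, MgCl2, Brij-35, DTT, 1% DMSO, 25 °C to 10–20% conversion. EDTA stop; Caliper mobility-shift readout; apparent IC50 from percent activity vs log concentration.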

[2] = target: CDK2/Cyclin E (Homo sapiens, UniProt P24941); test: CDK2/Cyclin E biochemical phosphorylation assay (Caliper mobility shift); settings: apparent IC50; 1.0 mM ATP or ATP Km; 1.25 nM enzyme; 25° C.; read-out: CDK2/cyclin E1 IC50
How it was run: as §1

T1 sequence (P06493 whole entry): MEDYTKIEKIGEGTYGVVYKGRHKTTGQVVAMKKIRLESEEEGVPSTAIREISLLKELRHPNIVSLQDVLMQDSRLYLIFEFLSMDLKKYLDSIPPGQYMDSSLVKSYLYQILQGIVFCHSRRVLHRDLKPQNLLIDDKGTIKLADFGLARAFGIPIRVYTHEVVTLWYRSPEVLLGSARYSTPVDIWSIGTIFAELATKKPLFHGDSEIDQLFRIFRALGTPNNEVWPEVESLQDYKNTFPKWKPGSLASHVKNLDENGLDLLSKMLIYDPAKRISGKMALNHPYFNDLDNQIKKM
T1 sequence (P14635 whole entry partner): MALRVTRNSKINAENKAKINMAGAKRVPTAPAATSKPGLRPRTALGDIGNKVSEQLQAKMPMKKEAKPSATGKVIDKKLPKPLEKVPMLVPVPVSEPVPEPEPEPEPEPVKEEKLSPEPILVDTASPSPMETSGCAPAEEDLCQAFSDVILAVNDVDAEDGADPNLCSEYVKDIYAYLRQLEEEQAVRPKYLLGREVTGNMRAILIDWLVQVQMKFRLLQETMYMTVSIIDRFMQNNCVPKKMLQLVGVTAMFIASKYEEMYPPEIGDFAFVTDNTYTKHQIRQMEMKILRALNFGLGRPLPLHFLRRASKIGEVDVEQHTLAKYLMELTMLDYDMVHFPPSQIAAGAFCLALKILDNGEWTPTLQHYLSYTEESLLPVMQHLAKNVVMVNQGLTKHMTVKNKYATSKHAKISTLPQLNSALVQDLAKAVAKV

Row | Structure (SMILES) | IC50 [1] | IC50 [2]
1 | COc1cc(Nc2cnc3cnn([C@@H](C(F)F)C4CCOCC4)c3n2)n[nH]1 (single isomer, unassigned) [Example 192, (R)-1-(2,2-difluoro-1-(tetrahydro-2H-pyran-4-yl)ethyl)-N-(5-methoxy-1H-pyrazol-3-yl)-1H-pyrazolo[3,4-b]pyrazin-6-amine or (S)-1-(2,2-difluoro-1-(tetrahydro-2H-pyran-4-yl)ethyl)-N-(5-methoxy-1H-pyrazol-3-yl)-1H-pyrazolo[3,4-b]pyrazin-6-amine] | ≥ 500 nM | > 100 nM
2 | COc1cc(Nc2cnc3cnn([C@@H](C(F)F)C4CCOCC4)c3n2)n[nH]1 (single isomer, unassigned) [Example 193, (S)-1-(2,2-difluoro-1-(tetrahydro-2H-pyran-4-yl)ethyl)-N-(5-methoxy-1H-pyrazol-3-yl)-1H-pyrazolo[3,4-b]pyrazin-6-amine or (R)-1-(2,2-difluoro-1-(tetrahydro-2H-pyran-4-yl)ethyl)-N-(5-methoxy-1H-pyrazol-3-yl)-1H-pyrazolo[3,4-b]pyrazin-6-amine] | ≥ 500 nM | 10 to 20 nM
3 | COc1cc(Nc2cnc3cnn([C@@H](CF)C4CCOCC4)c3n2)n[nH]1 (single isomer, unassigned) [Example 194, (R)-1-(2-fluoro-1-(tetrahydro-2H-pyran-4-yl)ethyl)-N-(5-methoxy-1H-pyrazol-3-yl)-1H-pyrazolo[3,4-b]pyrazin-6-amine or (S)-1-(2-fluoro-1-(tetrahydro-2H-pyran-4-yl)ethyl)-N-(5-methoxy-1H-pyrazol-3-yl)-1H-pyrazolo[3,4-b]pyrazin-6-amine] | 100 to 500 nM | ≤ 10 nM
4 | COc1cc(Nc2cnc3cnn([C@@H](CF)C4CCOCC4)c3n2)n[nH]1 (single isomer, unassigned) [Example 195, (S)-1-(2-fluoro-1-(tetrahydro-2H-pyran-4-yl)ethyl)-N-(5-methoxy-1H-pyrazol-3-yl)-1H-pyrazolo[3,4-b]pyrazin-6-amine or (R)-1-(2-fluoro-1-(tetrahydro-2H-pyran-4-yl)ethyl)-N-(5-methoxy-1H-pyrazol-3-yl)-1H-pyrazolo[3,4-b]pyrazin-6-amine] | ≥ 500 nM | > 100 nM
5 | COc1cc(Nc2cnc3cnn(C[C@H]4C[C@@H]4C#N)c3n2)n[nH]1 (single isomer, unassigned) [Example 196, (1S,2S)-2-((6-((5-methoxy-1H-pyrazol-3-yl)amino)-1H-pyrazolo[3,4-b]pyrazin-1-yl)methyl)cyclopropane-1-carbonitrile or (1R,2R)-2-((6-((5-methoxy-1H-pyrazol-3-yl)amino)-1H-pyrazolo[3,4-b]pyrazin-1-yl)methyl)cyclopropane-1-carbonitrile] | ≥ 500 nM | > 100 nM
6 | COc1cc(Nc2cnc3cnn(C[C@H]4C[C@@H]4C#N)c3n2)n[nH]1 (single isomer, unassigned) [Example 197, (1R,2R)-2-((6-((5-methoxy-1H-pyrazol-3-yl)amino)-1H-pyrazolo[3,4-b]pyrazin-1-yl)methyl)cyclopropane-1-carbonitrile or (1S,2S)-2-((6-((5-methoxy-1H-pyrazol-3-yl)amino)-1H-pyrazolo[3,4-b]pyrazin-1-yl)methyl)cyclopropane-1-carbonitrile] | ≥ 500 nM | 20 to 30 nM
7 | CC[C@@H]([C@@H](C)O)n1ncc2ncc(Nc3cc(OC(F)F)[nH]n3)nc21 (single isomer, unassigned) [Example 201, (2R,3S)-3-(6-((5-(difluoromethoxy)-1H-pyrazol-3-yl)amino)-1H-pyrazolo[3,4-b]pyrazin-1-yl)pentan-2-ol or (2R,3R)-3-(6-((5-(difluoromethoxy)-1H-pyrazol-3-yl)amino)-1H-pyrazolo[3,4-b]pyrazin-1-yl)pentan-2-ol] | ≥ 500 nM | > 100 nM
8 | CCC([C@@H](C)O)n1ncc2ncc(Nc3cc(OC(F)F)[nH]n3)nc21 (single isomer, unassigned) [Example 202] | ≥ 500 nM | 30 to 100 nM
9 | C[C@@H](CCO)n1ncc2ncc(Nc3cc(OC(F)F)[nH]n3)nc21 (single isomer, unassigned) [Example 205, (S)-3-(6-((5-(difluoromethoxy)-1H-pyrazol-3-yl)amino)-1H-pyrazolo[3,4-b]pyrazin-1-yl)butan-1-ol or (R)-3-(6-((5-(difluoromethoxy)-1H-pyrazol-3-yl)amino)-1H-pyrazolo[3,4-b]pyrazin-1-yl)butan-1-ol] | ≥ 500 nM | 30 to 100 nM
10 | C[C@@H](CCO)n1ncc2ncc(Nc3cc(OC(F)F)[nH]n3)nc21 (single isomer, unassigned) [Example 206, (R)-3-(6-((5-(difluoromethoxy)-1H-pyrazol-3-yl)amino)-1H-pyrazolo[3,4-b]pyrazin-1-yl)butan-1-ol or (S)-3-(6-((5-(difluoromethoxy)-1H-pyrazol-3-yl)amino)-1H-pyrazolo[3,4-b]pyrazin-1-yl)butan-1-ol] | ≥ 500 nM | > 100 nM
11 | O[C@H]1CC[C@@H](n2ncc3ncc(Nc4cc(OC(F)F)[nH]n4)nc32)C1 (single isomer, unassigned) [Example 207] | ≥ 500 nM | 10 to 20 nM
12 | O[C@H]1CC[C@@H](n2ncc3ncc(Nc4cc(OC(F)F)[nH]n4)nc32)C1 (single isomer, unassigned) [Example 208] | ≥ 500 nM | ≤ 10 nM
13 | O[C@H]1CC[C@@H](n2ncc3ncc(Nc4cc(OC(F)F)[nH]n4)nc32)C1 (single isomer, unassigned) [Example 209] | ≥ 500 nM | > 100 nM
14 | O[C@H]1CC[C@@H](n2ncc3ncc(Nc4cc(OC(F)F)[nH]n4)nc32)C1 (single isomer, unassigned) [Example 210] | ≥ 500 nM | > 100 nM
15 | C[C@@H]([C@@H]1COCCO1)n1ncc2ncc(Nc3cc(OC(F)F)[nH]n3)nc21 (single isomer, unassigned) [Example 211] | ≥ 500 nM | 30 to 100 nM
16 | C[C@@H]([C@@H]1COCCO1)n1ncc2ncc(Nc3cc(OC(F)F)[nH]n3)nc21 (single isomer, unassigned) [Example 212] | ≥ 500 nM | > 100 nM
17 | C[C@@H]([C@@H]1COCCO1)n1ncc2ncc(Nc3cc(OC(F)F)[nH]n3)nc21 (single isomer, unassigned) [Example 213] | ≥ 500 nM | 10 to 20 nM
18 | C[C@@H]([C@@H]1COCCO1)n1ncc2ncc(Nc3cc(OC(F)F)[nH]n3)nc21 (single isomer, unassigned) [Example 214] | ≥ 500 nM | 10 to 20 nM
19 | C[C@@H]([C@H]1CCCOC1)n1ncc2ncc(Nc3cc(OC(F)F)[nH]n3)nc21 (single isomer, unassigned) [Example 215] | < 100 nM | ≤ 10 nM
20 | C[C@@H]([C@H]1CCCOC1)n1ncc2ncc(Nc3cc(OC(F)F)[nH]n3)nc21 (single isomer, unassigned) [Example 216] | ≥ 500 nM | 10 to 20 nM
21 | C[C@@H]([C@H]1CCCOC1)n1ncc2ncc(Nc3cc(OC(F)F)[nH]n3)nc21 (single isomer, unassigned) [Example 217] | ≥ 500 nM | 30 to 100 nM
22 | CC(C1CCCOC1)n1ncc2ncc(Nc3cc(OC(F)F)[nH]n3)nc21 (single isomer, unassigned) [Example 218] | < 100 nM | ≤ 10 nM
23 | C[C@@H](c1cccnc1)n1ncc2ncc(Nc3cc(OC(F)F)[nH]n3)nc21 [Example 1, (S)—N-(5-(difluoromethoxy)-1H-pyrazol-3-yl)-1-(1-(pyridin-3-yl)ethyl)-1H-pyrazolo[3,4-b]pyrazin-6-amine] | 100 to 500 nM | ≤ 10 nM
24 | FC(F)Oc1cc(Nc2cnc3cnn(CC4CCOCC4)c3n2)n[nH]1 [Example 2, N-(5-(difluoromethoxy)-1H-pyrazol-3-yl)-1-((tetrahydro-2H-pyran-4-yl)methyl)-1H-pyrazolo[3,4-b]pyrazin-6-amine] | 100 to 500 nM | ≤ 10 nM
25 | O[C@H]1CC[C@H](n2ncc3ncc(Nc4cc(OC(F)F)[nH]n4)nc32)CC1 [Example 3, (1r,4r)-4-(6-((5-(difluoromethoxy)-1H-pyrazol-3-yl)amino)-1H-pyrazolo[3,4-b]pyrazin-1-yl)cyclohexan-1-ol] | 100 to 500 nM | ≤ 10 nM
26 | C[C@@H](c1ccccn1)n1ncc2ncc(Nc3cc(OC(F)F)[nH]n3)nc21 [Example 4, (S)—N-(5-(difluoromethoxy)-1H-pyrazol-3-yl)-1-(1-(pyridin-2-yl)ethyl)-1H-pyrazolo[3,4-b]pyrazin-6-amine] | ≥ 500 nM | ≤ 10 nM
27 | Fc1ncccc1Cn1ncc2ncc(Nc3cc(OC(F)F)[nH]n3)nc21 [Example 7, N-(5-(difluoromethoxy)-1H-pyrazol-3-yl)-1-((2-fluoropyridin-3-yl)methyl)-1H-pyrazolo[3,4-b]pyrazin-6-amine] | 100 to 500 nM | ≤ 10 nM
28 | C[C@@H](c1cccnc1F)n1ncc2ncc(Nc3cc(OC(F)F)[nH]n3)nc21 [Example 8, (S)—N-(5-(difluoromethoxy)-1H-pyrazol-3-yl)-1-(1-(2-fluoropyridin-3-yl)ethyl)-1H-pyrazolo[3,4-b]pyrazin-6-amine] | < 100 nM | ≤ 10 nM
29 | C[C@@H](c1cccnc1F)n1nc(Cl)c2ncc(Nc3cc(OC(F)F)[nH]n3)nc21 [Example 17, (S)-3-chloro-N-(5-(difluoromethoxy)-1H-pyrazol-3-yl)-1-(1-(2-fluoropyridin-3-yl)ethyl)-1H-pyrazolo[3,4-b]pyrazin-6-amine] | 100 to 500 nM | ≤ 10 nM
30 | COc1cc(Nc2cnc3cnn([C@@H](C)C4CCOCC4)c3n2)n[nH]1 [Example 22, (S)—N-(5-methoxy-1H-pyrazol-3-yl)-1-(1-(tetrahydro-2H-pyran-4-yl)ethyl)-1H-pyrazolo[3,4-b]pyrazin-6-amine] | 100 to 500 nM | ≤ 10 nM
